SMILES strings stand for the structures.

Results on one compound are retold here after patent US20080234368A9, “Therapeutic compositions and methods of use” (Trustees of Dartmouth College, priority 1998, published 2008).

For assay [1], the system named is MCF-7 breast carcinoma cells. Description: Suppression of thymidine incorporation, dose-response (FIG. 13). It is filed as cell-based, human. Conditions: MCF-7 with 17-β-estradiol, 72 h; oleanolic acid statement at concentrations of 1 μM or less. The procedure:
Inhibitors of cell proliferation are known to be useful chemopreventive and chemotherapeutic agents. CDDO was tested against a wide variety of cells derived from highly aggressive leukemias and carcinomas, as well as from non-neoplastic tissues. NRP-152 cells were grown as described in Danielpour et al., 1994. MCF-7 cells were grown in phenol red-free RPMI 1640/10% charcoal-stripped FBS with added 17-β-estradiol (10 μM). Triterpenoids were added at the time of plating, and 72 h later ^3H-thymidine (1 μCi/well) was added for the final 2 h of incubation. Incorporation of thymidine was measured after cells were precipitated with TCA (10%), washed, and solubilized. The symbols used in FIG. 13 are CDDO, ▪; TP-82, ◯; and oleanolic acid; ●.
For orientation: Dividing cells build labelled thymidine or BrdU into new DNA.

Assay [2] deals with PC12 pheochromocytoma cells. The assay can be described thus: Neuronal differentiation / neurite outgrowth, image analysis. In kind it is cell-based, rat. How it is done: (§1) CDDO induces monocytic differentiation in the poorly differentiated LCDB acute myelogenous leukemia cell line, derived from a chemotherapy-resistant patient at the NCI Pediatric Oncology Branch. FIG. 11 illustrates LCDB cells seeded in RPMI 1640/2% FBS, either alone (11A), with 2.5 ng/ml TGF-β1 (11B), with 10^−8 M CDDO (11C), or with both TGF-β1 and CDDO (11D). After 48 h, cytospin slide preparations were made and stained for α-naphthyl acetate esterase activity (kit from Sigma). PC12 cells were cultured for 5 days in gridded dishes in DMEM/10% FBS and 5% horse serum (Smith et al., 1997), either alone (11E), with 100 ng/ml 7S NGF (11F), with 10^−6 M CDDO (11G), or with both NGF and CDDO (11H). […] Methods for quantitative image analysis of size of cells and neurites have been described (De 1a Torre et al., 1997). Control cells in FIG. 11E are approximately 10 μm in diameter. 3T3-L1 cells were grown to confluency in DMEM/5% calf serum, and then treated once with CDDO in DMEM/10% FBS (FIG. 12A) or with CDDO and/or LG100268 in DMEM/10% FBS (FIG. 12B). Every two days thereafter, medium was changed to DMEM/10% FBS, without added CDD0 or LG100268. Cells were harvested on day 8 (FIG. 12A) or day 6 (FIG. 12B), and GPDH was measured in lysates, using a standard assay for consumption of NADH at 340 nm (Wise and Green, 1979).
The rat pheochromocytoma cell line, PC12, has been widely used to study neuronal development and differentiation. Treatment of these tumor cells with NGF is known to induce a neuronal phenotype, with extensive neurite outgrowth (Greene and Rischler, 1976; Guroff 1985). CDDO markedly potentiates these effects of NGF. FIGS. 11E and F show the induction of neurite outgrowth by NGF (100 ng/ml). […] When used in combination with NGF, CDDO (FIG. 11H) almost doubled the number of primary neurites/cell (from 1.2±0.2 S.E.M. to 2.1±0.1, p<0.001), and caused a greater than 3-fold increase in length of neurites (from 28±6 to 99±9 microns, p<0.001), and a 5-fold increase in neurite branching/cell (from 0.23±0.06 to 1.13±0.08, p<0.001). Thus, CDDO enhances neuronal differentiation of PC12 cells by increasing cell size, as well as the extent and complexity of neurite arborization.

Another assay has as its system 3T3-L1 fibroblasts. Description: Adipogenic differentiation, induction of GPDH. In kind it is cell-based. How it is done:
as §1, with “1979). […]” for “1979).”

The test system of assay [3] is COX-2. Description: Western blot for COX-2 protein in stimulated primary macrophages. In kind it is cell-based, mouse. Conditions: concentrations of 1 μM or less; IFN-γ 10 ng/ml, LPS 2 ng/ml, 12 h. How it is done: (§2) FIG. 14(A) illustrates Western blots; primary mouse macrophages; IFN-γ, 10 ng/ml; LPS, 2 ng/ml were added to cultures together with triterpenoids or dexamethasone (concentrations shown as […]); cells were harvested at 12 h. FIG. 14(B) illustrates Northern blots, RAW 264.7 macrophage-like cell line. IFN-γ, 10 ng/ml; LPS, 1 ng/ml; TNF-α, 10 ng/ml, were added to cultures together with CDDO or dexamethasone. RNA prepared after 12 h; GAPDH used as a loading control. FIG. 14(C) illustrates suppression of production of NO and PGEF in primary macrophages. For NO studies, cells were treated with IFN-γ, 10 ng/ml, together with CDDO (M), dexamethasone (O), TP-82 (□), or oleanolic acid (A). After 48 h, supernatants were analyzed for NO by the Griess reaction. For PGEF studies, cells were treated with IFN-γ, 5 ng/ml, and LPS, 5 ng/ml, together with the same set of inhibitors. After 48 h, PGE was measured in supernatants by immunoassay. Control values (no inhibition) for NO and PGE2 were 4.7 nmol/[…] and 2.2 ng/ml/2×10^5 cells, respectively. FIGS. (14D) and (14E) illustrate (human colon myofibroblasts) ^18Co cells grown in MEM/10% FBS; other methods are the same as reported above for macrophages. FIG. 14(D) illustrates Northern blots showing dose-response for suppression of COX-2 mRNA after induction with IL-1β (30 pg/ml). CDDO was added together with IL-1. […]
(In western blotting, separated proteins are transferred to a membrane and probed.)

For assay [4], the system named is PGE2 production in primary macrophages. Description: Suppression of PGE2 production in primary macrophages (FIG. 14C). It is filed as cell-based, mouse. Conditions: levels as low as 10^−9 M; IFN-γ 5 ng/ml and LPS 5 ng/ml, 48 h. How it is done: as §2
Assay [5] has as its system COX-2. Description: TPA-induced COX-2 in 18Co cells. In kind it is cell-based, human. The source says: These cells were selected because of the importance of stromal cell COX-2 in colon carcinogenesis (Oshima et al., 1996). […] Although CDDO effectively blocks the induction of COX-2 by agents such as IFN-γ, LPS, TNF-α, and IL-1, CDDO is ineffective when TPA is used as the inducer of COX-2. This has been seen in 18Co cells, as well as in the human mammary epithelial cell line, 184B5/HER (Zhai et al., 1993).

Setting [6] is: CDDO 10^−6 M in combination with NGF 100 ng/ml, 5 days.

Consider `CC1(C)CC[C@]2(C(=O)O)CC[C@]3(C)[C@H](C(=O)C=C4[C@@]5(C)C=C(C#N)C(=O)C(C)(C)[C@@H]5CC[C@]43C)[C@@H]2C1` [Compound 6, 2-cyano-3,12-dioxoolean-1,9-dien-28-oic acid], for which the suppressing thymidine incorporation entry in assay [1] is on record as “highly active in the nanomolar range”. Also, in assay [2] (CDDO 10^−6 M by itself, 5 days), the cell morphology entry is “larger, flatter morphology” and the neurite formation result was “does not induce neurite formation”. Besides, in assay [2] (setting [6]), the length of neurites is listed as 99±9 microns and the neurite branching/cell is listed as 1.13±0.08. In assay [2] (CDDO 10^−6 M in combination with NGF 100 ng/ml, 5 days, ± S.E.M.), the “number of primary neurites/cell” value is reported as 2.1±0.1. Further, in assay [2] (CDDO in combination with NGF), the “increase in length of neurites over NGF alone” value is given as “greater than 3 fold” and the “increase in neurite branching/cell over NGF alone” value turned out to be 5 fold. The “adipogenic differentiation, combination with RXR-selective retinoid LG100268” value in the assay on 3T3-L1 fibroblasts (CDDO with LG100268, day 6) was “acts synergistically”. Moreover, the “adipogenic differentiation, induction of GPDH” value with 3T3-L1 fibroblasts (doses as low as 10^−8 M, without insulin, dexamethasone, IBMX, day 8) is reported as “caused adipogenic differentiation”. Besides, the “expression of COX-2 protein” value in the assay on COX-2 [3] was “blocked expression”. Also, in assay [4], the “inhibition of cumulative PGE2 production” value is recorded as “Significant inhibition”. The “blocking of COX-2 induction with TPA as inducer” value in the assay on COX-2 [5] is reported as “ineffective”.
